According to patent publication US8916567B2, “Certain crystalline hydrates, pharmaceutical compositions thereof and methods for preparation and use thereof” (Universal Technology Alliance, Inc., priority 2009, dated 2014):
In brackets after ≈: the same amount, converted by molar mass.

Tests used:
[1] = tested on: Staphylococcus aureus MSSA; test: Minimum inhibitory concentration (MIC) in vitro, agar dilution method; assay type: cell-based; conditions: S. MSSA (11 strains), clinically isolated
Text: (§1) Hydrates Samples: • The 1/2 hydrates prepared according to Example 2; • Content (purity % wt): 99.0%; • The 1/12 hydrates prepared according to Example 253; • Content (purity % wt): 98.9%; • The 2/7 hydrates prepared according to Example 106; • Content (purity % wt): 98.8%; • The 2/5 hydrates prepared according to Example 162; • Content (purity % wt): 99.0%; • The 3/4 hydrates prepared according to Example 337; • Content (purity % wt): 98.8%; • Preparation: dissolved in DMSO, and further diluted with sterile distilled water to desired concentration. • The hydrates samples were supplied by Sichuan Beilike Biotechnology LTD.
(§2) Anhydrous Sample: • The anhydrous compounds prepared according to Example 1. • Content (purity % wt): 98.6%; • Preparation: dissolved in DMSO, and further diluted with sterile distilled water to desired concentration; • The anhydrous sample was supplied by Sichuan Beilike Biotechnology LTD.
(§3) Control Samples • Vancomycin: provided by Sichuan Beilike Biotechnology LTD, purchased from Eli Lilly Japan K.K. • Lot No.: WM16151 (production date: Apr. 10, 2007, expiration date: Apr. 9, 2009). • Specification: 500 mg/bottle; solubility (physicochemical properties): soluble in water. • Linezolid (LZ): provided by Sichuan Beilike Biotechnology LTD.
(§4) Bacteria Strains • Clinically isolated strains: clinically isolated bacterial pathogens collected in Sichuan and Beijing areas from March 2007 to May 2008. • Species include: Staphylococcus aureus MRSA, Staphylococcus aureus MSSA, S. epidermidis MRSE, S. epidermidis MSSE, E. feacalis, and E. feacium, a total of 51 strains. • Quality control strains: Staphylococcus aureus […] strain kept in Sichuan Industrial Institute of Antibiotics, purchased from the medical testing center of the Ministry of Health, China.
(§5) Experimental Method: • Measurement of the minimum inhibitory concentration (MIC) in vitro: • The minimum inhibitory concentration (MIC) of each test sample against test strains was measured by using the agar dilution method recommended by the U.S. National Committee for Clinical Laboratory Standards (CLSI/NCCIs).
(§6) Based on the CLSI/NCCL's testing standard with respect to vancomycin and linezolid (see Table 6), the minimum inhibitory concentration (MIC) values of every strain were reported, and the MIC50 (the concentration that inhibits 50% of the different strains of bacteria), MIC90 (the concentration that inhibits 90% of the different strains of bacteria), and MICrange (the range of the MIC value of the tested strains) were observed.

E. feacium = test: as above; assay type: cell-based
Text: as §1, §2, §3, §4, §5, §6

S. epidermidis MSSE = test: as above; assay type: cell-based
Text: as §1, §2, §3, §4, §5, §6

[2] = tested on: Staphylococcus aureus MRSA; test: as above; assay type: cell-based; conditions: S. MRSA (10 strains), clinically isolated
Text: as §1, §2, §3, §4, §5, §6

E. feacalis = test: as above; assay type: cell-based
Text: as §1, §2, §3, §4, §5, §6

S. epidermidis MRSE = test: as above; assay type: cell-based
Text: as §1, §2, §3, §4, §5, §6

[3] = Solubility in different solvents according to Chinese Pharmacopeia (2005 edition); assay type: physicochemical; conditions: at the given solute:solvent ratio
Protocol: The solubility of the (S)—[N-3-(3′-fluoro-4′-(4″-phenylpiperazinyl))phenyl-2-oxo-5-oxazolelidinyl]methylacetamide hydrates was tested with different solvents, and the test results are shown in Tables 15-19. The solubility was measured according to Chinese Pharmacopeia (2005 edition).

[4] = E. feacium (5 strains), clinically isolated
[5] = S. ep MSSE (10 strains), clinically isolated
[6] = E. feacalis (5 strains), clinically isolated
[7] = S. ep MRSE (10 strains), clinically isolated

## CC(=O)NC[C@H]1CN(c2ccc(N3CCN(c4ccccc4)CC3)c(F)c2)C(=O)O1 [Anhydrous compound]
[1]
  MIC50: 2 µg/mL (≈ 4.85 µM)
  MIC90: 2 µg/mL (≈ 4.85 µM)
  MICrange: 1 to 2 µg/mL
E. feacium; [4]
  MIC50: 4 µg/mL (≈ 9.7 µM)
  MIC90: 8 µg/mL (≈ 19.4 µM)
  MICrange: 2 to 8 µg/mL
E. feacium; strain Efm 98 (Table 8 No. 21)
  MIC: 4 µg/mL (≈ 9.7 µM)
E. feacium; strain Efm 171 (Table 8 No. 25)
  MIC: 4 µg/mL (≈ 9.7 µM)
E. feacium; strain Efm 197 (Table 8 No. 22)
  MIC: 2 µg/mL (≈ 4.85 µM)
E. feacium; strain Efm N3 (Table 8 No. 23)
  MIC: 8 µg/mL (≈ 19.4 µM)
E. feacium; strain Efm N4 (Table 8 No. 24)
  MIC: 8 µg/mL (≈ 19.4 µM)
S. epidermidis MSSE; [5]
  MIC50: 1 µg/mL (≈ 2.42 µM)
  MIC90: 2 µg/mL (≈ 4.85 µM)
  MICrange: 1 to 2 µg/mL
S. epidermidis MSSE; strain S. ep MSSE88 (Table 8 No. 5)
  MIC: 2 µg/mL (≈ 4.85 µM)
S. epidermidis MSSE; strain S. ep MSSE118 (Table 8 No. 2)
  MIC: 1 µg/mL (≈ 2.42 µM)
S. epidermidis MSSE; strain S. ep MSSE137 (Table 8 No. 4)
  MIC: 2 µg/mL (≈ 4.85 µM)
S. epidermidis MSSE; strain S. ep MSSE140 (Table 8 No. 3)
  MIC: 1 µg/mL (≈ 2.42 µM)
S. epidermidis MSSE; strain S. ep MSSE153 (Table 8 No. 1)
  MIC: 2 µg/mL (≈ 4.85 µM)
[2]
  MIC50: 2 µg/mL (≈ 4.85 µM)
  MIC90: 2 µg/mL (≈ 4.85 µM)
  MICrange: 1 to 2 µg/mL
E. feacalis; [6]
  MIC50: 4 µg/mL (≈ 9.7 µM)
  MIC90: 8 µg/mL (≈ 19.4 µM)
  MICrange: 2 to 8 µg/mL
E. feacalis; strain Efa 54 (Table 8 No. 20)
  MIC: 4 µg/mL (≈ 9.7 µM)
E. feacalis; strain Efa 116 (Table 8 No. 16)
  MIC: 4 µg/mL (≈ 9.7 µM)
E. feacalis; strain Efa 907 (Table 8 No. 19)
  MIC: 2 µg/mL (≈ 4.85 µM)
E. feacalis; strain Efa 3006 (Table 8 No. 18)
  MIC: 4 µg/mL (≈ 9.7 µM)
E. feacalis; strain Efa 33748 (Table 8 No. 17)
  MIC: 8 µg/mL (≈ 19.4 µM)
S. epidermidis MRSE; [7]
  MIC50: 2 µg/mL (≈ 4.85 µM)
  MIC90: 2 µg/mL (≈ 4.85 µM)
  MICrange: 2 µg/mL
S. epidermidis MRSE; strain S. ep MRSE4 (Table 8 No. 9)
  MIC: 2 µg/mL (≈ 4.85 µM)
S. epidermidis MRSE; strain S. ep MRSE20 (Table 8 No. 6)
  MIC: 2 µg/mL (≈ 4.85 µM)
S. epidermidis MRSE; strain S. ep MRSE87 (Table 8 No. 13)
  MIC: 2 µg/mL (≈ 4.85 µM)
S. epidermidis MRSE; strain S. ep MRSE90 (Table 8 No. 10)
  MIC: 2 µg/mL (≈ 4.85 µM)
S. epidermidis MRSE; strain S. ep MRSE101 (Table 8 No. 7)
  MIC: 2 µg/mL (≈ 4.85 µM)
S. epidermidis MRSE; strain S. ep MRSE105 (Table 8 No. 11)
  MIC: 2 µg/mL (≈ 4.85 µM)
S. epidermidis MRSE; strain S. ep MRSE140 (Table 8 No. 14)
  MIC: 2 µg/mL (≈ 4.85 µM)
S. epidermidis MRSE; strain S. ep MRSE142 (Table 8 No. 12)
  MIC: 2 µg/mL (≈ 4.85 µM)
S. epidermidis MRSE; strain S. ep MRSE210 (Table 8 No. 15)
  MIC: 2 µg/mL (≈ 4.85 µM)
S. epidermidis MRSE; strain S. ep MRSE211 (Table 8 No. 8)
  MIC: 2 µg/mL (≈ 4.85 µM)

## CC(=O)NC[C@H]1CN(c2ccc(N3CCN(c4ccccc4)CC3)c(F)c2)C(=O)O1 [Example 1, (S)—[N-3-(3′-fluoro-4′-(4″-phenylpiperazinyl))phenyl-2-oxo-5-oxazolidinyl]methyl acetamide]
[3]; solvent 0.1N Hydrochloric acid
  Result: Dissolved
[3]; solvent 0.1N Sodium hydroxide
  Result: Insoluble
[3]; solvent Acetonitrile
  Result: Dissolved
[3]; solvent Ethanol
  Result: Dissolved
[3]; solvent Methanol
  Result: Dissolved
[3]; solvent Water, listed as Anhydride
  Result: Insoluble
